From PubChem BioAssay AID330 (DTP/NCI, 2004)
Inconclusive results and toxic doses are left out.

Test system: P388 leukemia ip, CD2F1 mice, survival T/C
Assay: NCI In Vivo Anticancer Drug Screen. Data for tumor model P388 Leukemia (intraperitoneal) in CD2F1 (CDF1) mice
Conditions: endpoint: median survival time, higher = longer survival
In short: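 Mice carrying the transplanted tumor received test compound or vehicle. Survival was recorded in each group, and the value is the treated-group measurement divided by that of the vehicle-treated control group.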

[1] = dose: 25.0 mg/kg/injection, schedule: Q01DX009 (ip), vehicle: saline
[2] = dose: 50.0 mg/kg/injection, schedule: Q01DX009 (ip), vehicle: saline
[3] = dose: 100.0 mg/kg/injection, schedule: Q01DX009 (ip), vehicle: saline
[4] = dose: 200.0 mg/kg/injection, schedule: Q01DX009 (ip), vehicle: saline
[5] = dose: 50.0 mg/kg/injection, schedule: Q01DX005 (ip), vehicle: saline with Tween-80
[6] = dose: 100.0 mg/kg/injection, schedule: Q01DX005 (ip), vehicle: saline with Tween-80
[7] = dose: 100.0 mg/kg/injection, schedule: Q04DX003 (ip), vehicle: Klucel (hydroxypropylcellulose) (HPC)
[8] = dose: 200.0 mg/kg/injection, schedule: Q04DX003 (ip), vehicle: Klucel (hydroxypropylcellulose) (HPC)
[9] = dose: 400.0 mg/kg/injection, schedule: Q04DX003 (ip), vehicle: Klucel (hydroxypropylcellulose) (HPC)
[10] = dose: 25.0 mg/kg/injection, schedule: Q01DX009 (ip), vehicle: Klucel (hydroxypropylcellulose) (HPC)

SMILES: N=C(N)c1ccc(OCCCOc2ccc(C(=N)N)cc2Br)c(Br)c1
- T/C (dose: 6.25 mg/kg/injection, schedule: Q04DX003 (ip), vehicle: saline): 100 % of control
- T/C (dose: 12.5 mg/kg/injection, schedule: Q04DX003 (ip), vehicle: saline): 109 % of control
- T/C [1]: 160 % of control
- T/C (dose: 25.0 mg/kg/injection, schedule: Q04DX003 (ip), vehicle: saline): 113 % of control
- T/C (dose: 33.0 mg/kg/injection, schedule: Q04DX003 (ip), vehicle: saline): 113 % of control
- T/C [2]: 90 % of control
- T/C (dose: 50.0 mg/kg/injection, schedule: Q04DX003 (ip), vehicle: saline): 113 % of control

SMILES: O=C(O)c1ccccc1-c1c2cc(Br)c(=O)cc-2oc2[c]([Hg])c(O)c(Br)cc12
- T/C (dose: 6.25 mg/kg/injection, schedule: Q01DX005 (ip), vehicle: saline): 106 % of control
- T/C (dose: 12.5 mg/kg/injection, schedule: Q01DX005 (ip), vehicle: saline): 109 % of control
- T/C (dose: 25.0 mg/kg/injection, schedule: Q01DX005 (ip), vehicle: saline): 107 % of control

SMILES: Cn1c(=O)c2[nH]c(Cl)nc2n(C)c1=O
- T/C [1]: 100 % of control
- T/C [2]: 102 % of control
- T/C [3]: 102 % of control
- T/C [4]: 99 % of control

SMILES: NC(C(=O)O)C(=O)c1ccccc1 (centres undefined)
- T/C (dose: 100.0 mg/kg/injection, schedule: Q01DX009 (ip), vehicle: saline with Tween-80): 100 % of control
- T/C (dose: 200.0 mg/kg/injection, schedule: Q01DX009 (ip), vehicle: saline with Tween-80): 100 % of control
- T/C (dose: 400.0 mg/kg/injection, schedule: Q01DX009 (ip), vehicle: saline with Tween-80): 118 % of control

SMILES: O=C(Nc1ccc(CCc2ccc(NC(=O)C34CC5CC(CC(C5)C3)C4)cc2)cc1)C12CC3CC(CC(C3)C1)C2
- T/C [5]: 96 % of control
- T/C [6]: 90 % of control

SMILES: Cc1cc(Cl)cc(S(=O)(=O)O)c1N
- T/C [7]: 95 % of control
- T/C [8]: 97 % of control
- T/C [9]: 97 % of control

SMILES: Clc1nnn(-c2ccccc2)n1
- T/C (dose: 62.5 mg/kg/injection, schedule: Q04DX002 (ip), vehicle: saline with Tween-80): 101 % of control
- T/C (dose: 125.0 mg/kg/injection, schedule: Q04DX002 (ip), vehicle: saline with Tween-80): 100 % of control

SMILES: O=C1CC(O)(c2ccc(-c3ccccc3)cc2)CS1 (centres undefined)
- T/C [7]: 101 % of control
- T/C [8]: 99 % of control
- T/C [9]: 92 % of control

SMILES: CC(Nc1cccc([N+](=O)[O-])c1)S(=O)(=O)O (centres undefined)
- T/C [2]: 97 % of control
- T/C [3]: 100 % of control
- T/C [4]: 97 % of control

SMILES: Cc1csc2ccc(Cl)cc12
- T/C (dose: 100.0 mg/kg/injection, schedule: Q01DX001 (ip), vehicle: Klucel (hydroxypropylcellulose) (HPC)): 95 % of control
- T/C (dose: 200.0 mg/kg/injection, schedule: Q01DX001 (ip), vehicle: Klucel (hydroxypropylcellulose) (HPC)): 107 % of control
- T/C (dose: 400.0 mg/kg/injection, schedule: Q01DX001 (ip), vehicle: Klucel (hydroxypropylcellulose) (HPC)): 107 % of control

SMILES: Cn1c2ccccc2c(=S)c2cc(NC(=O)CCCCC(=O)Nc3ccc4c(c3)c(=S)c3ccccc3n4C)ccc21
- T/C [5]: 110 % of control
- T/C [6]: 98 % of control
- T/C (dose: 200.0 mg/kg/injection, schedule: Q01DX005 (ip), vehicle: saline with Tween-80): 104 % of control

SMILES: C[Si](C)(C)C1c2ccccc2-c2[nH]c3ccccc3c21 (centres undefined)
- T/C (dose: 6.25 mg/kg/injection, schedule: Q01DX009 (ip), vehicle: Klucel (hydroxypropylcellulose) (HPC)): 101 % of control
- T/C (dose: 12.5 mg/kg/injection, schedule: Q01DX009 (ip), vehicle: Klucel (hydroxypropylcellulose) (HPC)): 87 % of control
- T/C [10]: 102 % of control

SMILES: O=C1c2c3c(c4c(c2C(=O)c2c5c(c6c(c21)CCCC6)CCCC5)CCCC4)CCCC3
- T/C (dose: 7.5 mg/kg/injection, schedule: Q01DX009 (ip), vehicle: saline with Tween-80): 99 % of control
- T/C (dose: 15.0 mg/kg/injection, schedule: Q01DX009 (ip), vehicle: saline with Tween-80): 98 % of control
- T/C (dose: 30.0 mg/kg/injection, schedule: Q01DX009 (ip), vehicle: saline with Tween-80): 103 % of control

SMILES: CCCCCc1onc(-c2noc(CCCCC)c2C)c1C
- T/C (dose: 60.0 mg/kg/injection, schedule: Q01DX005 (ip), vehicle: saline): 100 % of control
- T/C (dose: 120.0 mg/kg/injection, schedule: Q01DX005 (ip), vehicle: saline): 99 % of control
- T/C (dose: 240.0 mg/kg/injection, schedule: Q01DX005 (ip), vehicle: saline): 104 % of control

SMILES: O=S(=O)(NCCNS(=O)(=O)c1ccccc1)c1ccccc1
- T/C [10]: 90 % of control
- T/C (dose: 50.0 mg/kg/injection, schedule: Q01DX009 (ip), vehicle: Klucel (hydroxypropylcellulose) (HPC)): 100 % of control
- T/C (dose: 100.0 mg/kg/injection, schedule: Q01DX009 (ip), vehicle: Klucel (hydroxypropylcellulose) (HPC)): 90 % of control
- T/C (dose: 200.0 mg/kg/injection, schedule: Q01DX009 (ip), vehicle: Klucel (hydroxypropylcellulose) (HPC)): 91 % of control
